In US20120238915A1, “SOUND WAVE TREATMENT PLATFORM AND SOUND WAVE TREATMENT METHOD” (priority 2011, published 2012):

Columns and labels:
[1] = test system: non-operable pancreatic cancer
[2] = test system: terminal metastatic ovarian cancer; experiment: Example 10: patient treated with non-focused sound waves with Bleomycin; assay type: in vivo, human
Protocol: person five was diagnosed with terminal metastatic ovarian cancer with colostomy and complained of abdominal pain.
The patient was treated twice (one week apart) according to the present invention combined with 30 mg Bleomycin each time (Frequency: 0.3 MHz; power intensity: less than 2 W/cm^2; duration: less than 30 minutes (each time)). […] They remained pain free for over 8 months till their death due to sepsis.

[3] = test system: terminal hepatoma; experiment: Example 8: patient treated with non-focused sound waves with Bleomycin; assay type: in vivo, human; details: 30 mg Bleomycin + sound waves 0.3 MHz
Protocol: person four was diagnosed with terminal hepatoma and liver pain.
(§1) The patient was treated according to the present invention with 30 mg Bleomycin (Frequency: 0.3 MHz; power intensity: less than 2 W/cm^2; duration: less than 30 minutes).

[4] = test system: recurrent breast cancer and metastasis to the liver; experiment: Example 9: patient treated with non-focused sound waves with Bleomycin; assay type: in vivo, human
Protocol: person two was diagnosed with recurrent breast cancer and metastasis to the liver. They had multiple chemotherapy and target medicine treatment.
The patient was treated twice (one week apart) according to the present invention with 30 mg Bleomycin each time (Frequency: 0.3 MHz; power intensity: less than 2 W/cm^2; duration: less than 30 minutes (each time)). […] Their right upper quadrant pain resolved and remained pain free over 18 months till last follow up.

[5] = test system: metastatic oral cancer to the face; experiment: Example 7: patient treated with non-focused sound waves with Bleomycin; assay type: in vivo, human; details: 30 mg Bleomycin + sound waves 0.3 MHz
Protocol: person six was diagnosed with metastatic oral cancer to the face, and complained of severe facial pain. They have been treated with multiple surgery and chemoradiation. They presented with a large area of metastatic facial mass, and their right eye was bulging due to tumor infiltration.
as §1

[6] = test system: metastatic pancreatic cancer to liver; experiment: Example 4: patient treated with non-focused sound waves with Bleomycin; assay type: in vivo, human; details: 30 mg Bleomycin + sound waves 0.3 MHz
Protocol: person three was diagnosed with metastatic pancreatic cancer to liver and has been treated with Palliative bypass operation. No chemotherapy history. They were in very terminal stage with severe jaundice and great pain. They used Fetanyl patch and additional pain medication. The patient was treated according to the present invention with 30 mg Bleomycin (Frequency: 0.3 MHz; power intensity: less than 2 W/cm^2; duration: less than 30 minutes). […] They remained pain free for 4 days till their death due to hepatic failure.

[7] = test system: metastatic breast cancer; experiment: Example 6: patient treated with non-focused sound waves with Bleomycin; assay type: in vivo, human; details: 30 mg Bleomycin + sound waves 0.3 MHz
Protocol: person two was diagnosed with metastatic breast cancer, and complained of three weeks left shoulder pain.
as §1

[8] = test system: metastatic pancreatic cancer to liver; experiment: Example 3: patient treated with non-focused sound waves with Bleomycin; details: 30 mg Bleomycin + sound waves 0.3 MHz
[9] = test system: metastatic pancreatic cancer to liver; experiment: Example 1: patient treated with non-focused sound waves with Bleomycin; assay type: in vivo, human; details: 30 mg Bleomycin + sound waves 0.3 MHz
Protocol: person one was diagnosed with metastatic pancreatic cancer to liver. Treatment history was as follows: Gemcitabine, Tykerb, Xeloda, and 6000R radiation therapy. Despite multiple treatments, patient's condition continues to worsen with increased abdominal pain. The patient was taking pain medication with constipation.
The patient was treated according to the present invention with 30 mg Bleomycin (Frequency: 0.3 MHz; power intensity: less than 2 W/cm^2; duration: less than 30 minutes). […] Their tumor marker CA19-9 decreased from 1465 to 406 in 9 days after the treatment. They remained pain free for 150 days after the treatment till their death clue to organ failure.

[10] = test system: recurrent pancreatic cancer; details: human, in vivo
[11] = person two, 30 mg Bleomycin + sound waves 0.3 MHz

**Q.** For Nc1ccn([C@@H]2O[C@H](CO)[C@@H](O)C2(F)F)c(=O)n1 [Gemcitabine], which “tumor growth in diameter” value ([1]; during at least four months of weekly Gemcitabine, after Bleomycin + sound wave treatments) is on record?
**A.** 1.4 cm

**Q.** Bleomycin was tested. Which side effect ([2]; person five, 30 mg Bleomycin + sound waves 0.3 MHz) did it give?
**A.** no side effect

**Q.** And the abdominal pain ([2]; person five, after the first of two treatments one week apart, 30 mg Bleomycin each + sound waves 0.3 MHz, <2 W/cm^2, <30 min)?
**A.** resolved

**Q.** What about the remained pain free ([2]; till death due to sepsis, 30 mg Bleomycin twice + sound waves) of the same compound?
**A.** over 8 months

**Q.** What about the “pain free till death” value [3] of the same compound?
**A.** 14 days

**Q.** And the side effect ([3]; person four)?
**A.** no side effect

**Q.** And the right quadrant pain ([3]; person four, one treatment, <2 W/cm^2, <30 min)?
**A.** vanished

**Q.** What about the jaundice ([1]; after Bleomycin + sound wave treatments and weekly Gemcitabine) of the same compound?
**A.** did not have jaundice

**Q.** And the blood sugar ([1]; insulin dependent diabetic patient, after the treatment, remained till death)?
**A.** returned to normal level without using insulin

**Q.** What about the side effect [1, 11] of the same compound?
**A.** no side effect was observed

**Q.** What about the pancreatic region pain ([1]; person two, after the first treatment, 30 mg Bleomycin + sound waves 0.3 MHz, <2 W/cm^2, <30 min) of the same compound?
**A.** resolved

**Q.** What about the “remained pain free after the treatment” value ([1]; till death, 30 mg Bleomycin three times (third followed by 1000 mg Gemcitabine) + sound waves) of the same compound?
**A.** 183 days

**Q.** And the “right upper quadrant pain” value ([4]; 30 mg Bleomycin twice + sound waves 0.3 MHz)?
**A.** resolved

**Q.** What about the “liver tumor diameter (imaging study), second tumor” value ([4]; decreased from 7 cm, after the first treatment) of the same compound?
**A.** 4 cm

**Q.** What about the “liver tumor diameter (imaging study), first tumor” value ([4]; decreased from 10 cm, after the first treatment) of the same compound?
**A.** 7 cm

**Q.** What about the side effect [4, 11] of the same compound?
**A.** no side effect

**Q.** And the liver tumors size ([4]; person two, after the first of two treatments one week apart, 30 mg Bleomycin each + sound waves 0.3 MHz, <2 W/cm^2, <30 min)?
**A.** significantly decreased in size

**Q.** What about the “follow up imaging studies” value ([4]; several follow up imaging studies, 30 mg Bleomycin twice + sound waves) of the same compound?
**A.** stable liver metastasis

**Q.** What about the remained pain free ([4]; till last follow up, 30 mg Bleomycin twice + sound waves) of the same compound?
**A.** over 18 months

**Q.** And the facial tumor size [5]?
**A.** decreased in size

**Q.** And the “right eye (bulging due to tumor infiltration)” value [5]?
**A.** less bulging and could rotate

**Q.** What about the side effect ([5]; person six) of the same compound?
**A.** no side effect

**Q.** What about the facial pain ([5]; person six, one treatment, <2 W/cm^2, <30 min) of the same compound?
**A.** totally resolved

**Q.** What about the remained pain free ([5]; till last follow up) of the same compound?
**A.** over 33 days

**Q.** And the “pain medication use after treatment” value [6]?
**A.** without using anymore pain medication

**Q.** And the side effect ([6]; person three)?
**A.** no side effect was observed

**Q.** And the “time in which pain vanished” value ([6]; person three, one treatment)?
**A.** 6 h

**Q.** What about the pain ([6]; person three, one treatment, <2 W/cm^2, <30 min) of the same compound?
**A.** totally vanished

**Q.** And the remained pain free ([6]; till death due to hepatic failure)?
**A.** 4 days

**Q.** What about the pain free duration [7] of the same compound?
**A.** over seven months

**Q.** What about the side effect ([7]; person two, one treatment, <2 W/cm^2, <30 min) of the same compound?
**A.** no side effect was observed

**Q.** What about the shoulder pain ([7]; till death due to brain metastasis) of the same compound?
**A.** did not have shoulder pain

**Q.** And the pain free [8]?
**A.** 32 days

**Q.** And the side effect ([8]; person seven)?
**A.** no side effect was observed

**Q.** What about the “patient's pain” value ([8]; person seven, one treatment, <2 W/cm^2, <30 min) of the same compound?
**A.** totally dissolved

**Q.** What about the “pain medication use after treatment” value ([8]; until death due to sepsis) of the same compound?
**A.** without using any pain medication

**Q.** What about the “tumor marker CA19-9” value ([9]; decreased from 1465, in 9 days after the treatment) of the same compound?
**A.** 406

**Q.** What about the constipation symptom ([9]; person one, after the treatment) of the same compound?
**A.** relieved

**Q.** And the “pain medication use after treatment” value ([9]; person one, one treatment)?
**A.** has not taken any pain medication since the treatment

**Q.** What about the side effect ([9]; person one, one treatment) of the same compound?
**A.** no side effect was observed

**Q.** And the “patient's pain” value ([9]; person one, one treatment, <2 W/cm^2, <30 min)?
**A.** dissolved

**Q.** And the “remained pain free after the treatment” value ([9]; till death due to organ failure)?
**A.** 150 days

**Q.** And the body weight [10]?
**A.** increased

**Q.** And the “pain medication use after treatment” value [10]?
**A.** has not taken any pain medication since the first treatment till their death

**Q.** And the pain scale [10]?
**A.** 0-1

**Q.** What about the physical activity [10] of the same compound?
**A.** returned to near normal

**Q.** And the “remained pain free after the treatment” value [10]?
**A.** 170 days

**Q.** What about the side effect [10] of the same compound?
**A.** no side effect was observed

**Q.** What about the “survival after first diagnosis” value [10] of the same compound?
**A.** lived two years after their first diagnosis
